The test system of one test is C-reactive protein (CRP). In words: C-reactive protein inflammatory biomarker, clinical study. It counts as in vivo, human. As to conditions: 12 weeks.
Another test has as its system rheumatoid factor. The test is described as follows: Rheumatoid factor inflammatory biomarker, clinical study. It counts as in vivo, human. As to conditions: 12 weeks. From the text:
These structural changes are accompanied by a reduction in the acute phase reactant, C-reactive protein (CRP) and other inflammatory markers such as rheumatoid factor (Table 4). Table 3. Effect of MCIM compounds on damage indicators. * indicates statistical significance, p<0.05. a p = 0.1

The structures appear in SMILES notation. Marks after values point to notes of the source that are not given here.

For the molecule `C[C@]1(O)CC[C@H](NS(=O)(=O)c2ccc(-c3ccc(Cl)cc3C#N)cc2)CC1` [HMC-C-01-A], the “CRP- mean, Change from baseline” value in the test on C-reactive protein (CRP) (5 mg once daily) is recorded as 0.88 (18.4); in the test on C-reactive protein (CRP) (20 mg once daily), -4.13 (20.6); with C-reactive protein (CRP) (40 mg once daily, p<0.05), -5.73 (27.7) *. Moreover, the “CRP- median, Change from baseline” value with C-reactive protein (CRP) (5 mg once daily) is -0.20; in the test on C-reactive protein (CRP) (20 mg once daily), -0.10; in the test with C-reactive protein (CRP) (40 mg once daily, p<0.05) it was -2.50 *. In addition, the “Rheumatoid factor, mean, Change from baseline” value with rheumatoid factor (5 mg once daily) is 6.8 (80.9); with rheumatoid factor (20 mg once daily), -5.0 (60.4); with rheumatoid factor (40 mg once daily), -11.3 (88.0).
